Results published in paper PMC7265341, “Quantifying CDK inhibitor selectivity in live cells” (Nature Communications, 2020).
Read-outs that look alike come from different tables or passages of the source.

How the values were obtained:
Format in all cases: binding
CDK8/Cyclin C = CDK8/Cyclin C (Homo sapiens, UniProt P49336); assay: NanoBRET live-cell target engagement, NanoLuc-CDK8/Cyclin C in HEK-293; conditions: 10µM; independent experiment 2; read-out: CDK8/C Inhibition at 10µM (%)
CDK11B/Cyclin L2 = CDK11B/Cyclin L2 (Homo sapiens, UniProt P21127); assay: NanoBRET live-cell target engagement, CDK11B-NanoLuc/Cyclin L2 in HEK-293; conditions: read-out: CDK11b/L2 Inhibition at 10µM (%), 10µM
CDK15/Cyclin Y = CDK15/Cyclin Y (Homo sapiens, UniProt Q96Q40); assay: NanoBRET live-cell target engagement, NanoLuc-CDK15/Cyclin Y in HEK-293; conditions: for inhibition at 10 µM: read-out: CDK15/Y Inhibition at 10µM (%), 10µM
CDK17/Cyclin Y = CDK17/Cyclin Y (Homo sapiens, UniProt Q00537); assay: NanoBRET live-cell target engagement, CDK17-NanoLuc/Cyclin Y in HEK-293; conditions: for IC50: read-out: CDK17/Y IC50; for inhibition at 10 µM: read-out: CDK17/Y Inhibition at 10µM (%), 10µM
CDK2/Cyclin E1 = CDK2/Cyclin E1 (Homo sapiens, UniProt P24941); assay: NanoBRET live-cell target engagement, CDK2-NanoLuc/Cyclin E1 in HEK-293; conditions: for inhibition at 10 µM: read-out: CDK2/E1 Inhibition at 10µM (%); for CDK2 Occupancy (%): Panel A
CDK7 = CDK7 (Homo sapiens, UniProt P50613); assay: NanoBRET live-cell target engagement, NanoLuc-CDK7 in HEK-293; conditions: for inhibition at 10 µM: read-out: CDK7 Inhibition at 10µM (%); for CDK7 Occupancy (%): Panel A
CDK20/Cyclin H = CDK20/Cyclin H (Homo sapiens, UniProt Q8IZL9); assay: NanoBRET live-cell target engagement, NanoLuc-CDK20/Cyclin H in HEK-293; conditions: read-out: CDK20/H Inhibition at 10µM (%), 10µM
CDK12/Cyclin K = CDK12/Cyclin K (Homo sapiens, UniProt Q9NYV4); assay: NanoBRET live-cell target engagement, CDK12-NanoLuc/Cyclin K in HEK-293; conditions: read-out: CDK12/K Inhibition at 10µM (%), 10µM
CDK13/Cyclin K = CDK13/Cyclin K (Homo sapiens, UniProt Q14004); assay: NanoBRET live-cell target engagement, CDK13-NanoLuc/Cyclin K in HEK-293; conditions: 10µM, read-out: CDK13/K Inhibition at 10µM (%)
CDK14/Cyclin Y = CDK14/Cyclin Y (Homo sapiens, UniProt O94921); assay: NanoBRET live-cell target engagement, CDK14-NanoLuc/Cyclin Y in HEK-293; conditions: for inhibition at 10 µM: read-out: CDK14/Y Inhibition at 10µM (%), 10µM
[1] = LOG10([RGB-286638]) 0.045757 LOG10(µM)
[2] = LOG10([RGB-286638]) 0.522879 LOG10(µM)
[3] = LOG10([RGB-286638]) 1 LOG10(µM)
[4] = LOG10([RGB-286638]) -0.43136 LOG10(µM)
[5] = LOG10([RGB-286638]) -0.90849 LOG10(µM)
[6] = LOG10([RGB-286638]) -1.38561 LOG10(µM)
[7] = LOG10([RGB-286638]) -1.86273 LOG10(µM)
[8] = LOG10([RGB-286638]) -2.33985 LOG10(µM)
[9] = LOG10([RGB-286638]) -2.81697 LOG10(µM)
[10] = LOG10([RGB-286638]) -3.29409 LOG10(µM)
[11] = LOG10([RGB-286638]) -3.77121 LOG10(µM)

Chain of CDK12/Cyclin K (Q9NYV4 1-1481 isoform Q9NYV4-2): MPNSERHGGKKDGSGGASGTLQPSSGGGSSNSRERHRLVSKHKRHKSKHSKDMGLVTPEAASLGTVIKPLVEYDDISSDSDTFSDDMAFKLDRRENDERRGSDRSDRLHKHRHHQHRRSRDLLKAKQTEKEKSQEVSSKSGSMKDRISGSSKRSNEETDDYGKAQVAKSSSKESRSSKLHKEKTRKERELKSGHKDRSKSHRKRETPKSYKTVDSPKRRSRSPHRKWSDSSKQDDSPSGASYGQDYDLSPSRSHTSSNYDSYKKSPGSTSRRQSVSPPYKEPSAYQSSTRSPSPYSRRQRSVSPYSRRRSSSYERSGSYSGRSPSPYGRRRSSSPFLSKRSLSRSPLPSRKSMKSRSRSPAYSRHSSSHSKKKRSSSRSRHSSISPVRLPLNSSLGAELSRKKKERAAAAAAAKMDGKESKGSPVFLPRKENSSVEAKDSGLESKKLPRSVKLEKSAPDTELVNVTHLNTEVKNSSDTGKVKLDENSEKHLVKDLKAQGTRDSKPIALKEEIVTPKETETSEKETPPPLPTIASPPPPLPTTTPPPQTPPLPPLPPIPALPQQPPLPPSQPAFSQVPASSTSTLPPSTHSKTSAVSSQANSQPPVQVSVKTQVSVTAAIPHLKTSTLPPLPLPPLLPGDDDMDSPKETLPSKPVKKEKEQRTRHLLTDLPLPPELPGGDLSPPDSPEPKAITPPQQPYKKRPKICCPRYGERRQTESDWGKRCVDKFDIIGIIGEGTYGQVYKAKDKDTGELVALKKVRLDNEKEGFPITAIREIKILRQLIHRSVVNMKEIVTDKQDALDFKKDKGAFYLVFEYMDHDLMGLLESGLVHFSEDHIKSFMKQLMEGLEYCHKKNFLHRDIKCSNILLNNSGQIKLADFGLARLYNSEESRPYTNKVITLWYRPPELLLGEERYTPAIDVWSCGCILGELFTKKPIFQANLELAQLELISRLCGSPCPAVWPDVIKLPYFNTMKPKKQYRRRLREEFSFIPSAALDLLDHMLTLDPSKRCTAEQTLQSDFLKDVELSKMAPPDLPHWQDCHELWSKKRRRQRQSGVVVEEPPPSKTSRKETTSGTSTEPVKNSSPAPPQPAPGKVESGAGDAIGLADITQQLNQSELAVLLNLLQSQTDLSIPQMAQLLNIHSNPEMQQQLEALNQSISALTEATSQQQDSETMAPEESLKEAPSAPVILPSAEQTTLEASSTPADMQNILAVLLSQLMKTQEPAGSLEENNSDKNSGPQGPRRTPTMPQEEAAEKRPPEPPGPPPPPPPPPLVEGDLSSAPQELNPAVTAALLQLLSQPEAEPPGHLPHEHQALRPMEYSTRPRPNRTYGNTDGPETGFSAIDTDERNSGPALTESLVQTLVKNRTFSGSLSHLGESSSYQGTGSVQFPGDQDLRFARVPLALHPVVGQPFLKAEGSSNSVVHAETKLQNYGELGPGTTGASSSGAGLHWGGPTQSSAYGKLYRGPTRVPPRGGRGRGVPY
Chain of CDK12/Cyclin K (O75909 whole entry partner): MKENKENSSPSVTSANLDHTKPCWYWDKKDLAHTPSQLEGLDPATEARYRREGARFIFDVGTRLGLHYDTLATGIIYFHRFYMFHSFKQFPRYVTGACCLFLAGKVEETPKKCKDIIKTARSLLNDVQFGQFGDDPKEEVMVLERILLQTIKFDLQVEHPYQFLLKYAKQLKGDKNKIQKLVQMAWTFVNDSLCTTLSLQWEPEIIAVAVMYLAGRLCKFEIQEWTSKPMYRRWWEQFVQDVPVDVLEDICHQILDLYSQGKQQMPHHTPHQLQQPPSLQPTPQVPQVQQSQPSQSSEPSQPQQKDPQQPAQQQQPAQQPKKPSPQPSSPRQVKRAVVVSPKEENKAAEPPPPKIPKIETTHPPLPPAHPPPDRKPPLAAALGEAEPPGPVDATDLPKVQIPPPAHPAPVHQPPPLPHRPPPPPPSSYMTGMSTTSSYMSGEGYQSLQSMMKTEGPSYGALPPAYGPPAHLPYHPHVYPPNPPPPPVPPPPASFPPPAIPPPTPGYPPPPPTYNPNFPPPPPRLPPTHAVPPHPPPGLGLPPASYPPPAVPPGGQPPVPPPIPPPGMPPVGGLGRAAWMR
Chain of CDK7 (P50613 whole entry): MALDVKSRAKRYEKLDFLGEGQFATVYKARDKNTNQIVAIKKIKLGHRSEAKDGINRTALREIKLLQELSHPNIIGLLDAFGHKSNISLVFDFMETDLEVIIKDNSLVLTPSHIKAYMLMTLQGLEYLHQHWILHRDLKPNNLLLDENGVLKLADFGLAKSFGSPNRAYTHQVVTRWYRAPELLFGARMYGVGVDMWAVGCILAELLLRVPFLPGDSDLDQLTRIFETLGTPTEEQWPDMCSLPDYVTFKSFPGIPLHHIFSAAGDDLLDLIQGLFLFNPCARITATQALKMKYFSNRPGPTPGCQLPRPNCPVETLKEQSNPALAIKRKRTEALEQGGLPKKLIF
Chain of CDK14/Cyclin Y (O94921 whole entry): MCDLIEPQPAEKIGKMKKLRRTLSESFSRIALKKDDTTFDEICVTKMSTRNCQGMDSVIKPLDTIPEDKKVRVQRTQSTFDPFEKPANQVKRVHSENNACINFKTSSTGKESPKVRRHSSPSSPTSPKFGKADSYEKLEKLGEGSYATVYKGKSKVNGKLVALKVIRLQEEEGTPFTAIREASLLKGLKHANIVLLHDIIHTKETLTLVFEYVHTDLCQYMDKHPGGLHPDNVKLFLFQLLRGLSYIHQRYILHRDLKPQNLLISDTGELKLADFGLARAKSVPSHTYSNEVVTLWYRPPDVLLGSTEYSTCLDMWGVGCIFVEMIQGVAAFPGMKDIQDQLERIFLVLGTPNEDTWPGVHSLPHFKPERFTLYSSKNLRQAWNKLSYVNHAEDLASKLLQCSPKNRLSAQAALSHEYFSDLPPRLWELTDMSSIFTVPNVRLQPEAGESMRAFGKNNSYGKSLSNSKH
Chain of CDK14/Cyclin Y (Q8ND76 whole entry partner): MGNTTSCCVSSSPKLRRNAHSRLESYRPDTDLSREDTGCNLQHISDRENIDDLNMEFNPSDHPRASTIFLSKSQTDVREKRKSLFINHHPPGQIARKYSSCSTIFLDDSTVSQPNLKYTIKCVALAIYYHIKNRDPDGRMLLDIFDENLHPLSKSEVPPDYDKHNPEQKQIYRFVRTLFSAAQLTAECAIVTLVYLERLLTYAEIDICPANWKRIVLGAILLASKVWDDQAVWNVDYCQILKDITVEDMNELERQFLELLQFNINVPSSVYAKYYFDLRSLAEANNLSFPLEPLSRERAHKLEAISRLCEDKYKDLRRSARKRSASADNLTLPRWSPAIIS
Chain of CDK13/Cyclin K (O75909 whole entry): as the sequence (O75909 whole entry partner) above
Chain of CDK13/Cyclin K (Q14004 other isoform, or with tags, fused parts or gaps): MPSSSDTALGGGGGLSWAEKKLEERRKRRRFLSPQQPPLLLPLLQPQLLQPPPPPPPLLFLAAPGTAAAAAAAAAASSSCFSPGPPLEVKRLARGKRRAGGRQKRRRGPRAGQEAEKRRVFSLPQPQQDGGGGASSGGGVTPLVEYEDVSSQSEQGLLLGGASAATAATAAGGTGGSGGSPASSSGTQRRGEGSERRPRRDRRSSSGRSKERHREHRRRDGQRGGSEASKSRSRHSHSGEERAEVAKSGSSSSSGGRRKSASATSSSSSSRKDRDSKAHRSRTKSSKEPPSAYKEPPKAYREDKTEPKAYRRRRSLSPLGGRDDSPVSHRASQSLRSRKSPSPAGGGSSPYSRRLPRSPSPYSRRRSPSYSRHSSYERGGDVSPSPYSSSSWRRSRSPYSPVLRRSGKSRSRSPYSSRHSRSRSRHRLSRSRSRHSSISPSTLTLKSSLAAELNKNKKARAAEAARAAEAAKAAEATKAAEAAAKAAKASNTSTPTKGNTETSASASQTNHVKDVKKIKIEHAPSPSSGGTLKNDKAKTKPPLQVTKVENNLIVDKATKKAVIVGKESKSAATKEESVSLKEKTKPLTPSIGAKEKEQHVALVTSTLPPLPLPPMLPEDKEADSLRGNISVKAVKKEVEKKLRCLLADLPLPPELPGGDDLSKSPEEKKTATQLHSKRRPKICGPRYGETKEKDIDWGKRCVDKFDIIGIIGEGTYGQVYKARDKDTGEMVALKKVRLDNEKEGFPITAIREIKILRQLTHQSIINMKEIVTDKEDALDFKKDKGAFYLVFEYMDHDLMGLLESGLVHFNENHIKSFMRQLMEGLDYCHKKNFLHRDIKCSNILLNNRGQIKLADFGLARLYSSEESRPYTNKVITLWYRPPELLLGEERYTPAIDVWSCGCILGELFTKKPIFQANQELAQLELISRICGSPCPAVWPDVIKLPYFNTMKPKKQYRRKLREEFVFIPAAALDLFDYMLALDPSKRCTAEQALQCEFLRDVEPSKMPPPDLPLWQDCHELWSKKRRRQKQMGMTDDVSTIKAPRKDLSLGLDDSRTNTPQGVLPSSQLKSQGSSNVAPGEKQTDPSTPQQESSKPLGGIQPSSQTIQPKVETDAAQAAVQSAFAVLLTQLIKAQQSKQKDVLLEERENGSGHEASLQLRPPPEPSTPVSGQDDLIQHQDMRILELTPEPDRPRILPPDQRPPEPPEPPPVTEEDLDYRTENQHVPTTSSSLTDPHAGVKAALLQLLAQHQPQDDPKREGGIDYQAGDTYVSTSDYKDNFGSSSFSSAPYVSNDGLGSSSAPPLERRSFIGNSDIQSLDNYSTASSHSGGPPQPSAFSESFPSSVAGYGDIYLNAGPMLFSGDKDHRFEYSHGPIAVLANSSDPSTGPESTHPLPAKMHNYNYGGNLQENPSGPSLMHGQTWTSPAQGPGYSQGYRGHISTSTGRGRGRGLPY

COCCN1CCN(Cc2ccc(-c3n[nH]c4c3C(=O)c3c(NC(=O)NN5CCOCC5)cccc3-4)cc2)CC1 [RGB286638]
inhibition at 10 µM (CDK8/Cyclin C): 89.3% | inhibition at 10 µM (CDK11B/Cyclin L2; average of experiments): 32.6% | inhibition at 10 µM (CDK11B/Cyclin L2; independent experiment 1): 19.9% | inhibition at 10 µM (CDK11B/Cyclin L2; independent experiment 2): 45.2% | IC50 (CDK15/Cyclin Y; average (± SEM where n=3), read-out: CDK15/Y IC50): 14 nM | IC50 (CDK15/Cyclin Y; independent experiment 1, read-out: CDK15/Y IC50): 14 nM | IC50 (CDK15/Cyclin Y; independent experiment 2, read-out: CDK15/Y IC50): 13 nM | IC50 (CDK15/Cyclin Y; live HEK-293, 2 h, mean ± S.E.M. (n=3) or mean (n=2), read-out: IC50 for CDK/cyclin complexes, CDK15/Y): 14 nM | inhibition at 10 µM (CDK15/Cyclin Y; average of experiments): 97.4% | inhibition at 10 µM (CDK15/Cyclin Y; independent experiment 1): 96.5% | inhibition at 10 µM (CDK15/Cyclin Y; independent experiment 2): 98.2% | IC50 (CDK17/Cyclin Y; average (± SEM where n=3)): 6.6 nM | IC50 (CDK17/Cyclin Y; independent experiment 1): 7.9 nM | IC50 (CDK17/Cyclin Y; independent experiment 2): 5.3 nM | inhibition at 10 µM (CDK17/Cyclin Y; average of experiments): 93.9% | inhibition at 10 µM (CDK17/Cyclin Y; independent experiment 1): 95.7% | inhibition at 10 µM (CDK17/Cyclin Y; independent experiment 2): 92.1% | inhibition at 10 µM (CDK2/Cyclin E1; average of experiments): 84.4% | inhibition at 10 µM (CDK2/Cyclin E1; independent experiment 1): 83.7% | inhibition at 10 µM (CDK2/Cyclin E1; independent experiment 2): 85.1% | CDK2 Occupancy (%) (CDK2/Cyclin E1; [1]): 96.9519% | CDK2 Occupancy (%) (CDK2/Cyclin E1; [2]): 98.1016% | CDK2 Occupancy (%) (CDK2/Cyclin E1; [3]): 98.1016% | CDK2 Occupancy (%) (CDK2/Cyclin E1; [4]): 95.1872% | CDK2 Occupancy (%) (CDK2/Cyclin E1; [5]): 90.2941% | CDK2 Occupancy (%) (CDK2/Cyclin E1; [6]): 78.6096% | CDK2 Occupancy (%) (CDK2/Cyclin E1; [7]): 57.754% | CDK2 Occupancy (%) (CDK2/Cyclin E1; [8]): 30.4813% | CDK2 Occupancy (%) (CDK2/Cyclin E1; [9]): 11.4973% | CDK2 Occupancy (%) (CDK2/Cyclin E1; [10]): 5.615% | CDK2 Occupancy (%) (CDK2/Cyclin E1; [11]): 0.2674% | IC50 (CDK2/Cyclin E1; average (± SEM where n=3), read-out: CDK2/E1 IC50): 14 ± 5 nM | IC50 (CDK2/Cyclin E1; independent experiment 1, read-out: CDK2/E1 IC50): 8.9 nM | IC50 (CDK2/Cyclin E1; independent experiment 2, read-out: CDK2/E1 IC50): 9.8 nM | IC50 (CDK2/Cyclin E1; independent experiment 3, read-out: CDK2/E1 IC50): 23 nM | IC50 (CDK2/Cyclin E1; live HEK-293, 2 h, mean ± S.E.M. (n=3) or mean (n=2), read-out: IC50 for CDK/cyclin complexes, CDK2/E1): 12 to 16 nM | inhibition at 10 µM (CDK7; average of experiments): 93.9% | inhibition at 10 µM (CDK7; independent experiment 1): 91% | inhibition at 10 µM (CDK7; independent experiment 2): 96.7% | CDK7 Occupancy (%) (CDK7; [1]): 97.0886% | CDK7 Occupancy (%) (CDK7; [2]): 96.5823% | CDK7 Occupancy (%) (CDK7; [3]): 97.4684% | CDK7 Occupancy (%) (CDK7; [4]): 93.9241% | CDK7 Occupancy (%) (CDK7; [5]): 87.0886% | CDK7 Occupancy (%) (CDK7; [6]): 72.7848% | CDK7 Occupancy (%) (CDK7; [7]): 53.2911% | CDK7 Occupancy (%) (CDK7; [8]): 31.2658% | CDK7 Occupancy (%) (CDK7; [9]): 12.6582% | CDK7 Occupancy (%) (CDK7; [10]): 6.329% | CDK7 Occupancy (%) (CDK7; [11]): 1.266% | IC50 (CDK7; average (± SEM where n=3), read-out: CDK7 IC50): 16 ± 5 nM | IC50 (CDK7; independent experiment 1, read-out: CDK7 IC50): 11 nM | IC50 (CDK7; independent experiment 2, read-out: CDK7 IC50): 11 nM | IC50 (CDK7; independent experiment 3, read-out: CDK7 IC50): 26 nM | IC50 (CDK7; live HEK-293, 2 h, mean ± S.E.M. (n=3) or mean (n=2), read-out: IC50 for CDK/cyclin complexes, CDK7): 12 to 16 nM | inhibition at 10 µM (CDK20/Cyclin H; independent experiment 1): 46% | inhibition at 10 µM (CDK20/Cyclin H; independent experiment 2): 84.3% | inhibition at 10 µM (CDK12/Cyclin K; average of experiments): 47.5% | inhibition at 10 µM (CDK12/Cyclin K; independent experiment 1): 30.7% | inhibition at 10 µM (CDK12/Cyclin K; independent experiment 2): 64.4% | inhibition at 10 µM (CDK13/Cyclin K; average of experiments): 49.1% | inhibition at 10 µM (CDK13/Cyclin K; independent experiment 1): 33.8% | inhibition at 10 µM (CDK13/Cyclin K; independent experiment 2): 64.5% | IC50 (CDK14/Cyclin Y; average (± SEM where n=3), read-out: CDK14/Y IC50): 31 nM | IC50 (CDK14/Cyclin Y; independent experiment 1, read-out: CDK14/Y IC50): 30 nM | IC50 (CDK14/Cyclin Y; independent experiment 2, read-out: CDK14/Y IC50): 31 nM | IC50 (CDK14/Cyclin Y; live HEK-293, 2 h, mean ± S.E.M. (n=3) or mean (n=2), read-out: IC50 for CDK/cyclin complexes, CDK14/Y): 31 nM | inhibition at 10 µM (CDK14/Cyclin Y; average of experiments): 95.9% | inhibition at 10 µM (CDK14/Cyclin Y; independent experiment 1): 94.1% | inhibition at 10 µM (CDK14/Cyclin Y; independent experiment 2): 97.8%
